From patent US8772503B2, “Processes for the preparation of deferasirox, and deferasirox polymorphs” (Mapi Pharma Ltd., priority 2009, dated 2014)

Assay: Heating/drying of the solid form, rechecked by XRPD and DSC
Type: physicochemical
Conditions: for Solid form after heating (XRPD, DSC): heated to 160° C. under vacuum, 5 minutes
Experimental: Details of XRPD method used in the tests are mentioned below:
Details of DSC method used in the tests are mentioned below:
Heat from 30° C. to 350° C. at 10° C./min
Form II was further dried by heating (e.g. 60° C. for 1 h) after being checked by XRPD, DSC, TGA and NMR. The XRPD and DSC of Form II were rechecked following the dehydration process.
Form III was further dried at 120° C. after being checked by XRPD, DSC, TGA and NMR. The XRPD and DSC were rechecked.
Amorphous deferasirox was heated to 160° C. under vacuum and kept at this temperature for 5 min. The formed crystal was rechecked by XRPD and DSC.

O=C(O)c1ccc(-n2nc(-c3ccccc3O)nc2-c2ccccc2O)cc1 [Form II, 4-[3,5-Bis(2-hydroxyphenyl)-1H-1,2,4-triazol-1-yl]benzoic acid]
Solid form after heating/drying (XRPD, DSC) (heated to 60° C. for 1 hr): converted to Form I

O=C(O)c1ccc(-n2nc(-c3ccccc3O)nc2-c2ccccc2O)cc1 [amorphous deferasirox, 4-[3,5-Bis(2-hydroxyphenyl)-1H-1,2,4-triazol-1-yl]benzoic acid]
Solid form after heating (XRPD, DSC): converted to Form I
Solid form after heating (XRPD, DSC) (listed as Amorphous): transformed into Form I

O=C(O)c1ccc(-n2nc(-c3ccccc3O)nc2-c2ccccc2O)cc1 [Form V, 4-[3,5-Bis(2-hydroxyphenyl)-1H-1,2,4-triazol-1-yl]benzoic acid]
Solid form after heating/drying (XRPD, DSC) (dried at 120° C. for 1 hr, vacuum): converted to Form I
